Experimental data: patent US11173160B2 (UNIVERSITY OF PITTSBURGH—OF THE COMMONWEALTH SYSTEM OF …, priority 2019, dated 2021)
“Also recorded” adds a separate entry of the source.

How the values were obtained:
[1] = biological target: Fms (Homo sapiens, UniProt P07333); settings: Source Millipore; 10-point titration in duplicates, done once; cited from earlier work
[2] = biological target: TTK (Homo sapiens, UniProt P33981); settings: cited from earlier work
[3] = system: SF8628 intracranial xenografts; assay: SF8628 orthotopic xenograft model; type: in vivo, mice; settings: for KI-67 staining (proliferation marker): 20 mg/kg, vs vehicle
Experimental: (§1) All animal procedures were carried out ethically according to animal user protocols approved by Institutional Animal Care Committee (IACUC). 4-6 week-old non-obese diabetic severe combined immune deficiency male or female mice (NOD-SCID-Prkdc^scid) were injected with 1×10^5 SU-DIPG-13p cells or 1×10^5 SF8628 DIPG cells. Cells were re-suspended in 2 μl of PBS and injected into the pons/midbrain using a stereotactic frame (Stoelting) and automated cell injector (Stoelting) with cells delivered over 4 minutes. Coordinates were as follows from the Lambda suture (x=0.8 mm, y=−0.8 mm, z=−5.0 mm). […] Mice were treated for two cycles (5 days on, with two days off per cycle). Mice were sacrificed at sign of neurological duress and brains were extracted and fixed in 4% PFA.
(§2) Also, the present disclosure used two established cell lines derived from transgenic mouse models of DIPG. Both lines are p53 null and express PDGFB, differing only in their H3.3 mutation status.
In a first DIPG mouse model, NOD-SCID gamma mice were injected with 2×10^5 SF8628 cells in the midbrain.
(§3) For each cycle, the compounds were administered 20 mg/kg/day for 5 days, followed with 2 days of rest period. Each mice received 2 cycles of treatment.

[4] = cited from earlier work
[5] = biological target: ALK (Homo sapiens, UniProt Q9UM73); settings: cited from earlier work
Chain of ALK (Q9UM73 19-1620): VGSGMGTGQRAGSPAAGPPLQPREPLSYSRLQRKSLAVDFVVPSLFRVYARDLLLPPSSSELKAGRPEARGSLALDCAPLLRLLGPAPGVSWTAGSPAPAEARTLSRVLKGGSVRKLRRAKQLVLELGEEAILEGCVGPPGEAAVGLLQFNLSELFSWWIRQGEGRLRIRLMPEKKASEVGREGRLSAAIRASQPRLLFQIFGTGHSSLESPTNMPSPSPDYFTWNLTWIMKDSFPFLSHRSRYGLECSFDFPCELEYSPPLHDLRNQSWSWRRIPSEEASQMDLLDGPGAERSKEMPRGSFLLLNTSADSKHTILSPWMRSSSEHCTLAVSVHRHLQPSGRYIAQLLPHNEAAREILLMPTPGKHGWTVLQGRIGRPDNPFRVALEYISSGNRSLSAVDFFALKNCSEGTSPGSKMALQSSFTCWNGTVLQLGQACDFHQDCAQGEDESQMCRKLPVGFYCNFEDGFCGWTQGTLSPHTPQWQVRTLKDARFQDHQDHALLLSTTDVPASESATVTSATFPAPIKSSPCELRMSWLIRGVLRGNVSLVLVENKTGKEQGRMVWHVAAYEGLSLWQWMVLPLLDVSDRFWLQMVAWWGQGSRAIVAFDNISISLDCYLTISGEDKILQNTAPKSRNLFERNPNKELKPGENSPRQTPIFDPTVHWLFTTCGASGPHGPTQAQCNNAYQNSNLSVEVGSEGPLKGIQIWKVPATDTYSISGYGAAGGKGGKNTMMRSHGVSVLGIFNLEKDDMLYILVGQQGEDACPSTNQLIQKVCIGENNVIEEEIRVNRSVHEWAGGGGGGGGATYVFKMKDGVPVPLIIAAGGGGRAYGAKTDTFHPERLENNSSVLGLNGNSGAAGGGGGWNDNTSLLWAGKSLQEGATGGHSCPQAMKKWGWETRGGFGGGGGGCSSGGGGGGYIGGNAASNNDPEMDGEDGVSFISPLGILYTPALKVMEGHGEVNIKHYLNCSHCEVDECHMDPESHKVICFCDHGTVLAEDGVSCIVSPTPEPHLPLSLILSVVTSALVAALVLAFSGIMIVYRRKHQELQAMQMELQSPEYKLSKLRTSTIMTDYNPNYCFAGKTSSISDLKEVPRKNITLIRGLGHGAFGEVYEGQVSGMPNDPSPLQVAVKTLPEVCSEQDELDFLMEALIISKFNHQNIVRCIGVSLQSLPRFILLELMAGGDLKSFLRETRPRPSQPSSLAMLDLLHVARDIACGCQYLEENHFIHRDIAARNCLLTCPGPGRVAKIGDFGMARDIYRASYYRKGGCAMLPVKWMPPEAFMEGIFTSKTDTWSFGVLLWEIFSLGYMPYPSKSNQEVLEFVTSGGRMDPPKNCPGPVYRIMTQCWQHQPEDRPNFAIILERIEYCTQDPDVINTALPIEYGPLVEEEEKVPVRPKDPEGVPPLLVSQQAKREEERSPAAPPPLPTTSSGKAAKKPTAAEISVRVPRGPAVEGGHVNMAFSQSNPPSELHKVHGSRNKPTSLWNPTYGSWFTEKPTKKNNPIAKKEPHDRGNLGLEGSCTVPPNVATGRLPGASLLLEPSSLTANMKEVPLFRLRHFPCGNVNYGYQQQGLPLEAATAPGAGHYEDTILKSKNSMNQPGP

[6] = system: six adult patient-derived glioblastoma cell lines (e.g., BT228, BT286, BT145); assay: radiation therapy and TG02 in adult glioblastoma cell lines; type: cell-based, human; settings: TG02 between 100 and 250 nM
Experimental: Cell viability was assessed on Day 5.

[7] = biological target: Aurora B (Homo sapiens, UniProt Q96GD4); settings: cited from earlier work
Chain of Aurora B (Q96GD4 whole entry): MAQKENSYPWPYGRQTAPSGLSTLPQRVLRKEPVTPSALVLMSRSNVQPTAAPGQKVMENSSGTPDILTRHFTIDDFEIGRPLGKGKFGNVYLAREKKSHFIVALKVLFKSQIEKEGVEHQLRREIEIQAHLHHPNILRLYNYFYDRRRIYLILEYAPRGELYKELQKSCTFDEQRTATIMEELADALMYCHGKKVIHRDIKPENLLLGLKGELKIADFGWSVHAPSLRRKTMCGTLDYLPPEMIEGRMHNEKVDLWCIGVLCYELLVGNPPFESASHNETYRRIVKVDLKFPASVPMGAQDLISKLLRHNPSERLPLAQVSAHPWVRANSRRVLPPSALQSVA

[8] = system: DIPG-13p orthotopic xenografts; assay: DIPG-13p orthotopic xenograft model; type: in vivo, mice; settings: for survival vs vehicle: 20 mg/kg/day for 5 days, 2 days rest
Experimental: as §1, §2
In a second DIPG mouse model, mice were injected with 1×10^5 DIPG13p cells in the midbrain of NOD-SCID gamma mice.
as §3

[9] = 2 cycles, listed as TG02 obtained from Adastra Pharmaceuticals

Chain of TTK (P33981 whole entry, species assumed): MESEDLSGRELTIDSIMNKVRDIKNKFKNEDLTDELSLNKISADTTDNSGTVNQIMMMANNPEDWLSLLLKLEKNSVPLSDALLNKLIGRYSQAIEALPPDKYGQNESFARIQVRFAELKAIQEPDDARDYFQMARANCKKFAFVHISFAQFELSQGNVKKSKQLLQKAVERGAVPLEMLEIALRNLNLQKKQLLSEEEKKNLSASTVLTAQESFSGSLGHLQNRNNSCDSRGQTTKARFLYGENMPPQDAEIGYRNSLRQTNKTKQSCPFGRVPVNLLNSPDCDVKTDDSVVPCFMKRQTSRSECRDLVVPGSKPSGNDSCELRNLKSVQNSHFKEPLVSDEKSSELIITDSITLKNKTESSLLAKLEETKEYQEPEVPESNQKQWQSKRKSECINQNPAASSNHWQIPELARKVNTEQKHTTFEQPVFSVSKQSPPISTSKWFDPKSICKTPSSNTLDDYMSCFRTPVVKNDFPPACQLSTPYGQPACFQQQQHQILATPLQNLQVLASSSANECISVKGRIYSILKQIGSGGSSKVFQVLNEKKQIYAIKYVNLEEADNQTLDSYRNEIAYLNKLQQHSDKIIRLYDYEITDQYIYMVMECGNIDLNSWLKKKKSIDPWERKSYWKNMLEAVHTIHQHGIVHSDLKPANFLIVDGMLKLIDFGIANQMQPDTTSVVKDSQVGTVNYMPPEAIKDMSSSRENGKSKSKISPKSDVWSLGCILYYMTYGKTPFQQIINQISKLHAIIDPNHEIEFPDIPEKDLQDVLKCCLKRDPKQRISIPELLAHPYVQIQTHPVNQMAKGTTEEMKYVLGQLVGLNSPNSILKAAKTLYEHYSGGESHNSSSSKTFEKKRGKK
Chain of Fms (P07333 20-972): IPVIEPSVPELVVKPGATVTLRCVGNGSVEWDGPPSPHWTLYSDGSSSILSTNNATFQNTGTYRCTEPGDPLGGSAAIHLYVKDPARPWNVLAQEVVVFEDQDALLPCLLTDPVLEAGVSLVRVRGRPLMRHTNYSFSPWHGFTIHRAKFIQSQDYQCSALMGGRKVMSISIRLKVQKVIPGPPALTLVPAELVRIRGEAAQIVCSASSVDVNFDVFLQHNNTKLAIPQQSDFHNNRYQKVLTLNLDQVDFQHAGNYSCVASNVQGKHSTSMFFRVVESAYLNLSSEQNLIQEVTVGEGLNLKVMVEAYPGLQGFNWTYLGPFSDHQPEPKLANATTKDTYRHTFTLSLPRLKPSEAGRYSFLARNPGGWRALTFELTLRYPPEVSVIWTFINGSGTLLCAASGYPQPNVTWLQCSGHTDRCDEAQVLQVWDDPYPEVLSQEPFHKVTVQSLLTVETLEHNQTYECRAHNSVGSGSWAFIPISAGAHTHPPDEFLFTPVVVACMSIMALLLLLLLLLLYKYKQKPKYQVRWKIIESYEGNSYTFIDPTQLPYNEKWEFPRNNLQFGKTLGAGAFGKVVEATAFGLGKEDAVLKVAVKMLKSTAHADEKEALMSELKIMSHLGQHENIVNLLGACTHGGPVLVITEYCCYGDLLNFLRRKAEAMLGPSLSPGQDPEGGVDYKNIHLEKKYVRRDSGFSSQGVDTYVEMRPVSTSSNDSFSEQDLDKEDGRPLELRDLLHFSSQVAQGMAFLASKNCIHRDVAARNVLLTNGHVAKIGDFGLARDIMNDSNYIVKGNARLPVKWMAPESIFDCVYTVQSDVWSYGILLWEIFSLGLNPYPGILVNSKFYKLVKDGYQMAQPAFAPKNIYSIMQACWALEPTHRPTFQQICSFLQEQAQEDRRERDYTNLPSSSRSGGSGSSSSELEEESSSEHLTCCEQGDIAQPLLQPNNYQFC

## CN1C/C=C/CCOc2cccc(c2)-c2ccnc(n2)Nc2cccc(c2)C1 [TG02, (16E)-14-methyl-20-oxa-5,7,14,27-tetraazatetracyclo[19.3.1.12,6.18,12]heptacosa-1(25),2(27),3,5,8(26),9,11,16,21,23-decaene]
[1]
  IC50: 27 nM
[2]
  inhibition at 100 nm: less than 50%
[3]; 2 cycles
  KI-67 staining (proliferation marker): reduced KI-67 staining
[3]; [9]
  KI-67 staining (proliferation marker): significantly reduced KI67 expression; also recorded: significantly reduced K167 expression
[3]; 20 mg/kg/day for 5 days, 2 days rest, 2 cycles
  survival vs vehicle: statistically significant increased median survival
[3]; TG02 20 mg/kg, 2 cycles of 5 days on 2 days off, vehicle 33 days
  median survival: 59 days
[3]; mice intracranially engrafted with DIPG cells
  extension of median survival time: nearly two-fold
[4]; adults, single dose of 200 mg
  peak concentration in plasma: 4,000 ng/mL
[4]; doses between 10 and 200 mg
  Cmax and AUC0-t dose dependence: dose-proportional increase
[4]; in vivo
  t1/2: approximately 18 hrs
[5]
  inhibition at 100 nm: less than 50%
[6]
  effect of combining radiation therapy (RT) and TG02: mostly a synergistic effect
[7]
  inhibition at 100 nm: less than 50%
[8]; 20 mg/kg, 2 cycles, vs vehicle
  K167 expression (proliferation marker): significantly reduced K167 expression
[8]; 2 cycles
  survival vs vehicle: statistically significant increased median survival
[8]; [9]
  survival vs vehicle: extended survival
[8]; TG02 20 mg/kg, 2 cycles of 5 days on 2 days off, vehicle 22.5 days
  median survival: 40 days
